Source: ChEMBL document CHEMBL1275568, “Comparison of disk diffusion and agar dilution methods for erythromycin, ciprofloxacin, and tetracycline susceptibility testing of Campylobacter coli and for tetracycline susceptibility testing of Campylobacter jejuni subsp. jejuni” (2008)

Tests used:
Type in all cases: functional
Campylobacter coli [1] = test: Antimicrobial activity against Campylobacter coli by disk diffusion method
Campylobacter jejuni = test: Antimicrobial activity against Campylobacter jejuni by disk diffusion method
Campylobacter coli [2] = test: Antimicrobial activity against Campylobacter coli assessed as resistant rate

Compound: O=C(O)c1cn(C2CC2)c2cc(N3CCNCC3)c(F)cc2c1=O [CIPROFLOXACIN]
- diameter of the inhibition zone (DIZ) (Campylobacter coli [1]): >=20 mm

Compound: CC[C@H]1OC(=O)[C@H](C)[C@@H](O[C@H]2C[C@@](C)(OC)[C@@H](O)[C@H](C)O2)[C@H](C)[C@@H](O[C@@H]2O[C@H](C)C[C@H](N(C)C)[C@H]2O)[C@](C)(O)C[C@@H](C)C(=O)[C@H](C)[C@@H](O)[C@]1(C)O [ERYTHROMYCIN]
- diameter of the inhibition zone (DIZ) (Campylobacter coli [1]): >=15 mm

Compound: CN(C)[C@@H]1C(O)=C(C(N)=O)C(=O)[C@@]2(O)C(O)=C3C(=O)c4c(O)cccc4[C@@](C)(O)[C@H]3C[C@@H]12 [TETRACYCLINE]
- diameter of the inhibition zone (DIZ) (Campylobacter coli [1]): >=26 mm
- diameter of the inhibition zone (DIZ) (Campylobacter jejuni): <=20 mm
- Activity (Campylobacter coli [2]): 48%
